Target: T1, human recombinant A3AR (expressed in HEK-293 cells) (Homo sapiens, UniProt P0DMS8)
T1 construct: host or cells: HEK-293 cells
T1 sequence (P0DMS8 1-318): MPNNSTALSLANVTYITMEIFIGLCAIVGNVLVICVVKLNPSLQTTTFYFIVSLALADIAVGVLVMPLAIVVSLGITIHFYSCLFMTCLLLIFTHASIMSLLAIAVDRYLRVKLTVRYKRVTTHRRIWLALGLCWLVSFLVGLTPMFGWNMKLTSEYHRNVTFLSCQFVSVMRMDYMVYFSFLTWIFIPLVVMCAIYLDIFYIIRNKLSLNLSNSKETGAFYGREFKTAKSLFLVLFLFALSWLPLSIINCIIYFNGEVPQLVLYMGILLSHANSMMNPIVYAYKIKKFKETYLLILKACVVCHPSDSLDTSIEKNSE
Test: Adenosine receptors antagonism assay (Eurofins), [125I]-AB-MECA radioligand competition
Type: binding
Details: [125I]-AB-MECA 0.15 nM, r.t., 120 min; IC50 from dose-response curves; read-out: Potency Class A3AR

Compound	IC50
CCC(CC)Nc1cc(Nc2ccnnc2)c2nnc(C(C)C)n2n1 [compound 149, 3-isopropyl-N6-(pentan-3-yl)-N8-(pyridazin-4-yl)-[1,2,4]triazolo[4,3-b]pyridazine-6,8-diamine]	1 to 10 nM
CCC(CC)Nc1cc(Nc2ncccn2)c2nnc(C(C)C)n2n1 [compound 152, 3-isopropyl-N6-(pentan-3-yl)-N8-(pyrimidin-2-yl)-[1,2,4]triazolo[4,3-b]pyridazine-6,8-diamine]	10 to 100 nM
CCC(CC)Nc1cc(Nc2cc(OC)ccn2)c2nnc(C(C)C)n2n1 [compound 156, 3-isopropyl-N8-(4-methoxypyridin-2-yl)-N6-(pentan-3-yl)-[1,2,4]triazolo[4,3-b]pyridazine-6,8-diamine]	1 to 10 nM
CCC(CC)Nc1cc(Nc2ncccc2OC)c2nnc(C(C)C)n2n1 [compound 157, 3-isopropyl-N8-(3-methoxypyridin-2-yl)-N6-(pentan-3-yl)-[1,2,4]triazolo[4,3-b]pyridazine-6,8-diamine]	10 to 100 nM
CCC(CC)Nc1cc(Nc2cncc(OC)c2)c2nnc(C(C)C)n2n1 [compound 160, 3-isopropyl-N8-(5-methoxypyridin-3-yl)-N6-(pentan-3-yl)-[1,2,4]triazolo[4,3-b]pyridazine-6,8-diamine]	1 to 10 nM
CC[C@H](CO)Nc1cc(Nc2ccccn2)c2nnc(C(C)C)n2n1 [compound 163, (2R)-2-[[3-isopropyl-8-(2-pyridylamino)-[1,2,4]triazolo[4,3-b]pyridazin-6-yl]amino]butan-1-ol]	10 to 100 nM
CC(C)c1nnc2c(NCCc3ccccn3)cc(NC3CCCC3)nn12 [compound 165, N6-cyclopentyl-3-isopropyl-N8-[2-(2-pyridyl)ethyl]-[1,2,4]triazolo[4,3-b]pyridazine-6,8-diamine]	1 to 10 nM
CCC(CC)CNc1cc(NCCc2cccnc2)c2nnc(C(C)C)n2n1 [compound 166, N6-(2-ethylbutyl)-3-isopropyl-N8-[2-(3-pyridyl)ethyl]-[1,2,4]triazolo[4,3-b]pyridazine-6,8-diamine]	1 to 10 nM
CCC(CC)CNc1cc(NCC(CC)CC)c2nnc(C(C)C)n2n1 [compound 167, N6,N8-bis(2-ethylbutyl)-3-isopropyl-[1,2,4]triazolo[4,3-b]pyridazine-6,8-diamine]	1 to 10 nM
CCC(CC)Nc1cc(NCCCc2ccccc2)c2nnc(C(C)C)n2n1 [compound 170, N6-(1-ethylpropyl)-3-isopropyl-N8-(3-phenylpropyl)-[1,2,4]triazolo[4,3-b]pyridazine-6,8-diamine]	1 to 10 nM
CCC(CC)Nc1cc(Nc2ccnnc2)c2nnc(C3CC3)n2n1 [compound 176, 3-cyclopropyl-N6-(pentan-3-yl)-N8-(pyridazin-4-yl)-[1,2,4]triazolo[4,3-b]pyridazine-6,8-diamine]	1 to 10 nM
CCC(CC)Nc1cc(Nc2ncccn2)c2nnc(C3CC3)n2n1 [compound 179, 3-cyclopropyl-N6-(pentan-3-yl)-N8-(pyrimidin-2-yl)-[1,2,4]triazolo[4,3-b]pyridazine-6,8-diamine]	10 to 100 nM
CCC(CC)Nc1cc(Nc2cccnc2OC)c2nnc(C3CC3)n2n1 [compound 184, 3-cyclopropyl-N8-(2-methoxypyridin-3-yl)-N6-(pentan-3-yl)-[1,2,4]triazolo[4,3-b]pyridazine-6,8-diamine]	10 to 100 nM
CC[C@H](CO)Nc1cc(NCCc2ccccn2)c2nnc(C3CC3)n2n1 [compound 185, (2R)-2-[[3-cyclopropyl-8-[2-(2-pyridyl)ethylamino]-[1,2,4]triazolo[4,3-b]pyridazin-6-yl]amino]butan-1-ol]	10 to 100 nM
c1ccc(CNc2cc(NCc3ccccn3)c3nnc(C4CC4)n3n2)cc1 [compound 186, N6-benzyl-3-cyclopropyl-N8-(pyridin-2-ylmethyl)-[1,2,4]triazolo[4,3-b]pyridazine-6,8-diamine]	1 to 10 nM

The next lines start with the values.

IC50	Compound
< 1 nM	CCC(CC)CNc1cc(Nc2cccnn2)c2nnc(C(C)C)n2n1 [compound 147, N6-(2-ethylbutyl)-3-isopropyl-N8-(pyridazin-3-yl)-[1,2,4]triazolo[4,3-b]pyridazine-6,8-diamine]
< 1 nM	CCC(CC)Nc1cc(Nc2cccnn2)c2nnc(C(C)C)n2n1 [compound 148, 3-isopropyl-N6-(pentan-3-yl)-N8-(pyridazin-3-yl)-[1,2,4]triazolo[4,3-b]pyridazine-6,8-diamine]
< 1 nM	CCC(CC)Nc1cc(Nc2ccncn2)c2nnc(C(C)C)n2n1 [compound 150, 3-isopropyl-N6-(pentan-3-yl)-N8-(pyrimidin-4-yl)-[1,2,4]triazolo[4,3-b]pyridazine-6,8-diamine]
< 1 nM	CCC(CC)Nc1cc(Nc2cncnc2)c2nnc(C(C)C)n2n1 [compound 151, 3-isopropyl-N6-(pentan-3-yl)-N8-(pyrimidin-5-yl)-[1,2,4]triazolo[4,3-b]pyridazine-6,8-diamine]
< 1 nM	CCC(CC)Nc1cc(Nc2cnccn2)c2nnc(C(C)C)n2n1 [compound 153, 3-isopropyl-N6-(pentan-3-yl)-N8-(pyrazin-2-yl)-[1,2,4]triazolo[4,3-b]pyridazine-6,8-diamine]
< 1 nM	CCC(CC)Nc1cc(Nc2cccc(OC)n2)c2nnc(C(C)C)n2n1 [compound 154, 3-isopropyl-N8-(6-methoxypyridin-2-yl)-N6-(pentan-3-yl)-[1,2,4]triazolo[4,3-b]pyridazine-6,8-diamine]
< 1 nM	CCC(CC)Nc1cc(Nc2ccc(OC)cn2)c2nnc(C(C)C)n2n1 [compound 155, 3-isopropyl-N8-(5-methoxypyridin-2-yl)-N6-(pentan-3-yl)-[1,2,4]triazolo[4,3-b]pyridazine-6,8-diamine]
< 1 nM	CCC(CC)Nc1cc(Nc2cccnc2OC)c2nnc(C(C)C)n2n1 [compound 158, 3-isopropyl-N8-(2-methoxypyridin-3-yl)-N6-(pentan-3-yl)-[1,2,4]triazolo[4,3-b]pyridazine-6,8-diamine]
< 1 nM	CCC(CC)Nc1cc(Nc2ccc(OC)nc2)c2nnc(C(C)C)n2n1 [compound 159, 3-isopropyl-N8-(6-methoxypyridin-3-yl)-N6-(pentan-3-yl)-[1,2,4]triazolo[4,3-b]pyridazine-6,8-diamine]
< 1 nM	CCC(CC)Nc1cc(Nc2cc(OC)cnn2)c2nnc(C(C)C)n2n1 [compound 162, 3-isopropyl-N8-(5-methoxypyridazin-3-yl)-N6-(pentan-3-yl)-[1,2,4]triazolo[4,3-b]pyridazine-6,8-diamine]
< 1 nM	CCC(CC)CNc1cc(NCCc2ccccn2)c2nnc(C(C)C)n2n1 [compound 164, N6-(2-ethylbutyl)-3-isopropyl-N8-[2-(2-pyridyl)ethyl]-[1,2,4]triazolo[4,3-b]pyridazine-6,8-diamine]
< 1 nM	CCC(CC)Nc1cc(Nc2ccccc2)c2nnc(C3CC3)n2n1 [compound 171, 3-cyclopropyl-N6-(1-ethylpropyl)-N8-phenyl-[1,2,4]triazolo[4,3-b]pyridazine-6,8-diamine]
< 1 nM	CCC(CC)Nc1cc(Nc2ccccn2)c2nnc(C3CC3)n2n1 [compound 172, 3-cyclopropyl-N6-(1-ethylpropyl)-N8-(2-pyridyl)-[1,2,4]triazolo[4,3-b]pyridazine-6,8-diamine]
< 1 nM	CCC(CC)Nc1cc(Nc2cccnc2)c2nnc(C3CC3)n2n1 [compound 173, 3-cyclopropyl-N6-(1-ethylpropyl)-N8-(3-pyridyl)-[1,2,4]triazolo[4,3-b]pyridazine-6,8-diamine]
< 1 nM	CCC(CC)Nc1cc(Nc2ccncc2)c2nnc(C3CC3)n2n1 [compound 174, 3-cyclopropyl-N6-(1-ethylpropyl)-N8-(4-pyridyl)-[1,2,4]triazolo[4,3-b]pyridazine-6,8-diamine]
< 1 nM	CCC(CC)Nc1cc(Nc2ccncn2)c2nnc(C3CC3)n2n1 [compound 177, 3-cyclopropyl-N6-(pentan-3-yl)-N8-(pyrimidin-4-yl)-[1,2,4]triazolo[4,3-b]pyridazine-6,8-diamine]
< 1 nM	CCC(CC)Nc1cc(Nc2cncnc2)c2nnc(C3CC3)n2n1 [compound 178, 3-cyclopropyl-N6-(1-ethylpropyl)-N8-pyrimidin-5-yl-[1,2,4]triazolo[4,3-b]pyridazine-6,8-diamine]
< 1 nM	CCC(CC)Nc1cc(Nc2cnccn2)c2nnc(C3CC3)n2n1 [compound 180, 3-cyclopropyl-N6-(pentan-3-yl)-N8-(pyrazin-2-yl)-[1,2,4]triazolo[4,3-b]pyridazine-6,8-diamine]
< 1 nM	CC[C@H](CO)Nc1cc(Nc2cccnn2)c2nnc(C3CC3)n2n1 [compound 181, (R)-2-((3-cyclopropyl-8-(pyridazin-3-ylamino)-[1,2,4]triazolo[4,3-b]pyridazin-6-yl)amino)butan-1-ol]
< 1 nM	CC[C@@H](CO)Nc1cc(Nc2cccnn2)c2nnc(C3CC3)n2n1 [compound 182, (S)-2-((3-cyclopropyl-8-(pyridazin-3-ylamino)-[1,2,4]triazolo[4,3-b]pyridazin-6-yl)amino)butan-1-ol]
< 1 nM	CCC(CC)Nc1cc(Nc2cccc(OC)n2)c2nnc(C3CC3)n2n1 [compound 183, 3-cyclopropyl-N8-(6-methoxypyridin-2-yl)-N6-(pentan-3-yl)-[1,2,4]triazolo[4,3-b]pyridazine-6,8-diamine]

Same assay, conditions: read-out: Potency Class A3AR; [125I]-AB-MECA 0.15 nM, r.t., 120 min; IC50 from dose-response curves

Compound	IC50
CCC(CC)Nc1cc(NC(=O)Cc2cccnc2)c2nnc(C(C)C)n2n1 [compound 168, N-[6-(1-ethylpropylamino)-3-isopropyl-[1.2.4]triazolo[4,3-b]pyridazin-8-yl]-2-(3-pyridyl)acetamide]	< 1 nM
CC[C@H](CO)Nc1cc(NCc2ccccn2)c2nnc(C(C)C)n2n1 [compound 169]	10 to 100 nM

Reference: patent publication EP4477653A1 (Perha Pharmaceuticals, priority 2023, dated 2024)
